Reference: patent US10434101B2, “Heterocyclic compounds and uses thereof” (Celgene CAR LLC, priority 2010, dated 2019)
Where two headings read alike, the source gives them in different places.

Key:
[1] = test system: H1975 cells (EGFR L858R/T790M); assay: Cell proliferation (CellTiter Glo, 72 hr) in H1975 cells; format: cell-based, human; conditions: for GI50: Homo sapiens
Description: (§1) A431 human epidermoid carcinoma, H1975 human NSCLC and HCC827 human NSCLC adenocarcinoma cells were obtained from the American Type Culture Center (Manassas, Va.). A431 cells were grown in DMEM (Invitrogen, Carlsbad, Calif.) supplemented with 10% FBS (HyClone, South Logan, Utah) and 1% Penicillin-Streptomycin (P/S, Lonza, Walkersville, Md.).
(§2) Cells were plated in Growth Media supplemented with 5% FBS and 1% P/S at a density of 3,000 cells per well in 96 well tissue culture plates (Corning). […] Growth inhibition (GI50) values were determined by Graph Pad Prism.

pEGFR in H1975 cells = pEGFR in H1975 cells (Homo sapiens (Human), UniProt P00533, L858R/T790M); assay: Washout experiment in H1975 cells (pEGFR); format: cell-based; conditions: 500 nM for 1 hr; for pEGFR activity restored: 24 h after compound removal, by new protein synthesis; for inhibition at 0.5 µM: NCI-H1975
Description: Washout Experiment in H1975 Cells Containing EGFR Deletion/T790M Mutation
Cells were plated in Growth Media supplemented with 10% FBS and 1% P/S at a density of 2.0×10^5 cells per well in 12 well tissue culture plates. Cells were allowed to settle down for 4 hrs and then maintained in low-serum (0.1% FBS) media overnight.
The following morning the media was removed and the cells were treated with 500 nM test compound in low-serum media for 1 hr. The cells were washed free of compound 2× with PBS (Invitrogen). One set of cells were immediately lysed as indicated above as the 0 hr time point. The remaining cells were incubated with complete RPMI-1640 growth media (10% FBS) for 1, 3, 6 and 24 hr. For the first 1 hr, cells were washed 2× with PBS every 30 min. DMSO (0.5%) controls were collected at the 0, 3, 6 and 24 hr time points.

[2] = test system: HCC827 cells (EGFR delE746-A750); assay: Cell proliferation (CellTiter Glo, 72 hr) in HCC827 cells; format: cell-based, human; conditions: for GI50: Homo sapiens
Description: as §1, §2

A431 cells (WT EGFR) = assay: Cell proliferation (CellTiter Glo, 72 hr) in A431 cells; format: cell-based; conditions: Homo sapiens
Description: as §1, §2

[3] = target: EGFR delE746-A750 deletion mutation (HCC827 cells) (Homo sapiens (Human), UniProt P00533, DEL746-750); assay: Phospho-EGFR signaling (immunoblotting, 1 hr) in HCC827 cells; format: cell-based; conditions: signaling EC50 WT (A431) / HCC827
Description: as §1
(§3) All primary antibodies were obtained from Cell Signaling (Danvers, Mass.) and used at 1:1000. Secondary antibodies were used at 1:10,000. Goat anti-mouse IgG IRDye 800CW antibody was obtained from LiCor Biosciences (Lincoln, Nebr.) and goat anti-rabbit IgG Alexa Fluor 680 was obtained from Invitrogen.
(§4) Cells were grown in 12-well plates (Corning, Coring, N.Y.) to 90% confluence and then incubated in low-serum (0.1% FBS) media for 16-18 hr. […] A431 cells were then stimulated with 50 ng/ml EGF (Peprotech, Rocky Hill, N.J.) for 15 min. After treatment, cell monolayers were washed with cold PBS (Invitrogen) and immediately lysed by scrapping into 60 uL cold Cell Extraction Buffer (Invitrogen) supplemented with Complete Protease inhibitors (Roche, Indianapolis, Ind.) and PhosphoSTOP (Roche) phosphatase inhibitors.
(§5) Phospho-protein signals were quantitated using Odyssey Infrared Imaging (Li-Cor Biosciences).
(§6) To assess phosphor-EGFR signaling, blots were probed with rabbit anti-Phospho-EGFR (Y1068) and mouse total anti-EGFR antibodies. Phospho-EGFR signal was normalized to total EGFR expression for each sample. […] Normalized data was fitted using a sigmoidal curve analysis program (Graph Pad Prism version 5) with variable Hill slope to determine the EC50 values.

[4] = target: EGFR double mutation L858R/T790M (H1975 cells) (Homo sapiens (Human), UniProt P00533, L858R/T790M); assay: Phospho-EGFR signaling (immunoblotting, 1 hr) in H1975 cells; format: cell-based; conditions: signaling EC50 WT (A431) / H1975
Description: as §1, §3, §4, §5, §6

EGFR-WT = EGFR-WT (Homo sapiens (Human), UniProt P00533); assay: Omnia assay, potency against EGFR (WT) active enzyme; format: biochemical; conditions: [EGFR-WT]=5 nM, [ATP]=15 uM, 30 min pre-incubation
Description: Kinase reactions were started with the addition of 45 μL of the ATP/Tyr-Sox peptide substrate mix and monitored every 71 seconds for 60 minutes at λex360/λem485 in a Synergy^4 plate reader from BioTek (Winooski, Vt.).

[5] = NCI-H1975, H1975 cells, 72 hr, read-out: H1975 GI50
[6] = NCI-H1975, Table 2, H1975 express EGFR L858R/T790M, read-out: Comparative GI50 Values, H1975
[7] = 1 hr after compound removal, read-out: pEGFR phosphorylation inhibited
[8] = for at least 8 hours after compound was removed, read-out: pEGFR remained inhibited
[9] = HCC827 cells, 72 hr, read-out: HCC827 GI50
[10] = Table 2, HCC827 express EGFR delE746-A750, read-out: Comparative GI50 Values, HCC827
[11] = A-431, A431 cells, 72 hr, read-out: WT EGFR GI50
[12] = A-431, Table 2, A431 cells express WT EGFR, read-out: Comparative GI50 Values, A431

C=CC(=O)Nc1cccc(Nc2nc(Nc3ccc(N4CCN(C(C)=O)CC4)cc3OC)ncc2C(F)(F)F)c1 [Compound I-4, N-(3-(2-(4-(4-acetylpiperazin-1-yl)-2-methoxyphenylamino)-5-(trifluoromethyl)pyrimidin-4-ylamino)phenyl)acrylamide]
GI50 [1, 5]: 10 to 100 nM | GI50 [1, 6]: 10 to 100 nM | pEGFR activity restored (pEGFR in H1975 cells): 40-60% | inhibition at 0.5 µM (pEGFR in H1975 cells; [7]): 80 to 100% | inhibition at 0.5 µM (pEGFR in H1975 cells; [8]): 60 to 90% | GI50 [2, 9]: 10 to 100 nM | GI50 [2, 10]: 10 to 100 nM | GI50 (A431 cells (WT EGFR); [11]): 500 to 1000 nM | GI50 (A431 cells (WT EGFR); [12]): 500 to 1000 nM

C=CC(=O)Nc1cccc(Oc2nc(Nc3ccc(N4CCN(C(=O)OC(C)(C)C)CC4)cc3OC)ncc2Cl)c1 [Compound I-46, tert-butyl 4-(4-(4-(3-acrylamidophenoxy)-5-chloropyrimidin-2-ylamino)-3-methoxyphenyl)piperazine-1-carboxylate]
Ratio WT/mutant (HCC827) [3]: >50 | GI50 ([1]; NCI-H1975, 72 h, read-out: H1975 GI50): 500 to 1000 nM | GI50 ([2]; HCC827, 72 h, read-out: HCC827 GI50): 100 to 500 nM | Ratio WT/mutant (H1975) [4]: >10 | GI50 (A431 cells (WT EGFR); A-431, 72 h, read-out: WT EGFR GI50): > 1000 nM

C=CC(=O)Nc1cccc(Nc2nc(Nc3ccc(N4CCOCC4)cc3OC(F)F)ncc2C(F)(F)F)c1 [Compound I-14, N-(3-(2-(2-(difluoromethoxy)-4-morpholinophenylamino)-5-(trifluoromethyl)pyrimidin-4-ylamino)phenyl)acrylamide]
Ratio WT/mutant (HCC827) [3]: >15 | GI50 [1, 5]: 100 to 500 nM | GI50 [2, 9]: 10 to 100 nM | Ratio WT/mutant (H1975) [4]: >15 | GI50 (A431 cells (WT EGFR); [11]): > 1000 nM

C=CC(=O)Nc1cccc(Nc2nc(Nc3ccc(N4CCOCC4)cc3OC)ncc2Cl)c1 [Compound I-15, N-(3-(5-chloro-2-(2-methoxy-4-morpholinophenylamino)pyrimidin-4-ylamino)phenyl)acrylamide]
IC50 (EGFR-WT): 30 to 100 nM | GI50 [1, 5]: 500 to 1000 nM | Ratio WT/mutant (H1975) ([1]; proliferation GI50 WT (A431) / H1975): >1 | GI50 [2, 9]: 100 to 500 nM | Ratio WT/mutant (HCC827) ([2]; proliferation GI50 WT (A431) / HCC827): >10 | GI50 (A431 cells (WT EGFR); [11]): > 1000 nM

C=CC(=O)Nc1cccc(Nc2nc(Nc3ccc(N4CCN(S(C)(=O)=O)CC4)cc3OC)ncc2C(F)(F)F)c1 [Compound I-17, N-(3-(2-(2-methoxy-4-(4-(methylsulfonyl)piperazin-1-yl)phenylamino)-5-(trifluoromethyl)pyrimidin-4-ylamino)phenyl)acrylamide]
Ratio WT/mutant (HCC827) [3]: >5 | GI50 [1, 5]: 100 to 500 nM | GI50 [2, 9]: 10 to 100 nM | Ratio WT/mutant (H1975) [4]: >30 | GI50 (A431 cells (WT EGFR); [11]): > 1000 nM

C=CC(=O)Nc1cccc(Nc2nc(Nc3ccc(N4CCOCC4)cc3OC)ncc2C(F)(F)F)c1 [Compound I-2, N-(3-(2-(2-methoxy-4-morpholinophenylamino)-5-(trifluoromethyl)pyrimidin-4-ylamino)phenyl)acrylamide]
GI50 [1, 5]: 10 to 100 nM | GI50 [1, 6]: 10 to 100 nM | pEGFR activity restored (pEGFR in H1975 cells): 40-60% | inhibition at 0.5 µM (pEGFR in H1975 cells; [7]): 80 to 100% | inhibition at 0.5 µM (pEGFR in H1975 cells; [8]): 60 to 90% | GI50 [2, 9]: 10 to 100 nM | GI50 [2, 10]: 10 to 100 nM | Ratio WT/mutant (H1975) [4]: >50 | GI50 (A431 cells (WT EGFR); [11]): > 1000 nM | GI50 (A431 cells (WT EGFR); [12]): > 1000 nM

C=CC(=O)Nc1cccc(Nc2nc(Nc3ccc(N4CCN(C(C)=O)CC4)cc3OC)ncc2Cl)c1 [Compound I-8, N-(3-(2-(4-(4-acetylpiperazin-1-yl)-2-methoxyphenylamino)-5-chloropyrimidin-4-ylamino)phenyl)acrylamide]
GI50 [1, 5]: 100 to 500 nM | GI50 [2, 9]: 10 to 100 nM | Ratio WT/mutant (H1975) [4]: >1 | GI50 (A431 cells (WT EGFR); [11]): 500 to 1000 nM

C=CC(=O)Nc1cccc(Nc2nc(Nc3ccc(N4CCN(C(C)=O)CC4)cc3OC(F)(F)F)ncc2C(F)(F)F)c1 [Compound I-33, N-(3-(2-(4-(4-acetylpiperazin-1-yl)-2-(trifluoromethoxy)phenylamino)-5-(trifluoromethyl)pyrimidin-4-ylamino)phenyl)acrylamide]
GI50 [1, 5]: 10 to 100 nM | GI50 [2, 9]: 100 to 500 nM | Ratio WT/mutant (H1975) [4]: >50 | GI50 (A431 cells (WT EGFR); [11]): > 1000 nM
